Test results taken from US9073931B2, “Liver X receptor modulators” (Vitae Pharmaceuticals, Inc., priority 2012, dated 2015).
Like-named read-outs stand apart in the source and are kept apart here.

Columns and labels:
LBD of LXRβ [1] = molecular target: T1, LBD of LXRβ (Homo sapiens (Human), UniProt P55055); test: cell-based
LXR β LBD protein = LXR β LBD protein (Homo sapiens (Human), UniProt P55055); test: LXR β radioligand binding assay (SPA, [3H]T0901317 competition); details: competition with 15 nM [3H]T0901317, LXRβ LBD
LXR β LBD protein, sequence (P55055 222-460): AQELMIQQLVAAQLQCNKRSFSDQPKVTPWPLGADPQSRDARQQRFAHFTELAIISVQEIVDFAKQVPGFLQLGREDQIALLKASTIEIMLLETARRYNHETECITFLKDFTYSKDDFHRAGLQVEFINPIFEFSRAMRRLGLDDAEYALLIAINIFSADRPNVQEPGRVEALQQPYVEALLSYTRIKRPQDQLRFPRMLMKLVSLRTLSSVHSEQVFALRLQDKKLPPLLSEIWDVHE

LBD of LXRβ [2] = molecular target: T1, LBD of LXRβ

T1 sequence (P55055 222-460): as above

Row | Compound | EC50 (LBD of LXRβ [1]) [nM] | Ki (LXR β LBD protein) [nM] | EC50 (LBD of LXRβ [2]) [nM]
1 | CC(C)C1c2nc3ccc(S(C)(=O)=O)cc3n2CCN1c1ncc(C(C)(C)O)c(C(F)(F)F)n1 (racemic) [Compound E2, 2-(2-(1-isopropyl-7-(methylsulfonyl)-3,4-dihydrobenzo[4,5]imidazo[1,2-a]pyrazin-2(1H)-yl)-4-(trifluoromethyl)pyrimidin-5-yl)propan-2-ol] | 377 | 176 | –
2 | CC(C)C1c2nc3ccc(S(C)(=O)=O)cc3n2CCN1c1ncc(CO)c(C(F)(F)F)n1 (racemic) [Compound E4, (2-(1-isopropyl-7-(methylsulfonyl)-3,4-dihydrobenzo[4,5]imidazo[1,2-a]pyrazin-2(1H)-yl)-4-(trifluoromethyl)pyrimidin-5-yl)methanol] | 293 | 137 | –
3 | CCOC(=O)c1cnc(N2CCn3c(cc4cc(CO)c(S(C)(=O)=O)cc43)C2C(C)C)nc1C(F)(F)F (racemic) [Compound E28, (±)-Ethyl 2-(8-(hydroxymethyl)-1-isopropyl-7-(methylsulfonyl)-3,4-dihydropyrazino[1,2-a]indol-2(1H)-yl)-4-(trifluoromethyl)pyrimidine-5-carboxylate] | 72 | 5 | –
4 | CC(C)[C@@H]1c2nc3cc(CO)c(S(C)(=O)=O)cc3n2CCN1c1ncc(C(C)(C)O)c(C(F)(F)F)n1 (single isomer, unassigned) [Compound E7a] | 23 | 14 | –
5 | CC(C)[C@H]1c2nc3cc(CO)c(S(C)(=O)=O)cc3n2CCN1c1ncc(C(C)(C)O)c(C(F)(F)F)n1 (single isomer, unassigned) [Compound E7b] | 2180 | > 2500 | –
6 | CCCC(O)c1cnc(N2CCn3c(nc4cc(CO)c(S(C)(=O)=O)cc43)[C@H]2C(C)C)nc1C(F)(F)F (single isomer, unassigned) [Compound E11b] | 103 | 23 | –
7 | CC(C)[C@@H]1c2nc3cc(CO)c(S(C)(=O)=O)cc3n2CCN1c1ncc(C(N)=O)c(C(F)(F)F)n1 (single isomer, unassigned) [Compound E15a] | > 20000 | 240 | –
8 | CC(C)[C@H]1c2nc3cc(CO)c(S(C)(=O)=O)cc3n2CCN1c1ncc(C(N)=O)c(C(F)(F)F)n1 (single isomer, unassigned) [Compound E15b] | > 20000 | > 2500 | –
9 | CC(O)c1cnc(N2CCn3c(cc4ccc(S(C)(=O)=O)cc43)C2C(C)C)nc1C(F)(F)F (single isomer, unassigned) [Compound E24a, 1-(2-(1-isopropyl-7-(methylsulfonyl)-3,4-dihydropyrazino[1,2-a]indol-2(1H)-yl)-4-(trifluoromethyl)pyrimidin-5-yl)ethanol] | – | 7 | 134
10 | CC(O)c1cnc(N2CCn3c(cc4ccc(S(C)(=O)=O)cc43)C2C(C)C)nc1C(F)(F)F (single isomer, unassigned) [Compound E24b, 1-(2-(1-isopropyl-7-(methylsulfonyl)-3,4-dihydropyrazino[1,2-a]indol-2(1H)-yl)-4-(trifluoromethyl)pyrimidin-5-yl)ethanol] | – | 20 | 150
11 | CC(O)c1cnc(N2CCn3c(cc4ccc(S(C)(=O)=O)cc43)C2C(C)C)nc1C(F)(F)F (single isomer, unassigned) [Compound E24c, 1-(2-(1-isopropyl-7-(methylsulfonyl)-3,4-dihydropyrazino[1,2-a]indol-2(1H)-yl)-4-(trifluoromethyl)pyrimidin-5-yl)ethanol] | – | 1690 | 18200
12 | CC(O)c1cnc(N2CCn3c(cc4ccc(S(C)(=O)=O)cc43)C2C(C)C)nc1C(F)(F)F (single isomer, unassigned) [Compound E24d, 1-(2-(1-isopropyl-7-(methylsulfonyl)-3,4-dihydropyrazino[1,2-a]indol-2(1H)-yl)-4-(trifluoromethyl)pyrimidin-5-yl)ethanol] | – | > 2500 | > 20000
13 | CC(C)C1c2cc3cc(CO)c(S(C)(=O)=O)cc3n2CCN1c1ncc(C(C)(C)O)c(C(F)(F)F)n1 (single isomer, unassigned) [Compound E27a, 2-(2-(8-(hydroxymethyl)-1-isopropyl-7-(methylsulfonyl)-3,4-dihydropyrazino[1,2-a]indol-2(1H)-yl)-4-(trifluoromethyl)pyrimidin-5-yl)propan-2-ol] | – | 2 | 10
14 | CC(C)C1c2cc3cc(CO)c(S(C)(=O)=O)cc3n2CCN1c1ncc(C(C)(C)O)c(C(F)(F)F)n1 (single isomer, unassigned) [Compound E27b, 2-(2-(8-(hydroxymethyl)-1-isopropyl-7-(methylsulfonyl)-3,4-dihydropyrazino[1,2-a]indol-2(1H)-yl)-4-(trifluoromethyl)pyrimidin-5-yl)propan-2-ol] | – | 712 | 1440
15 | CCOC(=O)c1cnc(N2CCn3c(nc4cc(CO)c(S(C)(=O)=O)cc43)[C@H]2C(C)C)nc1C(F)(F)F [Compound E12, (R)-ethyl 2-(8-(hydroxymethyl)-1-isopropyl-7-(methylsulfonyl)-3,4-dihydrobenzo[4,5]imidazo[1,2-a]pyrazin-2(1H)-yl)-4-(trifluoromethyl)pyrimidine-5-carboxylate] | 50 | 6 | –
16 | COc1nc(N2CCn3c(nc4cc(CO)c(S(C)(=O)=O)cc43)[C@H]2C(C)C)ncc1C(F)(F)F [Compound E18, (R)-(1-isopropyl-2-(4-methoxy-5-(trifluoromethyl)pyrimidin-2-yl)-7-(methylsulfonyl)-1,2,3,4-tetrahydrobenzo[4,5]imidazo[1,2-a]pyrazin-8-yl)methanol] | 24 | 8 | –
17 | CC(=O)c1cnc(N2CCn3c(cc4ccc(S(C)(=O)=O)cc43)[C@H]2C(C)C)nc1C(F)(F)F [Compound E22a, (R)-1-(2-(1-isopropyl-7-(methylsulfonyl)-3,4-dihydropyrazino[1,2-a]indol-2(1H)-yl)-4-(trifluoromethyl)pyrimidin-5-yl)ethanone] | – | 12 | 107
18 | CC(=O)c1cnc(N2CCn3c(cc4ccc(S(C)(=O)=O)cc43)[C@@H]2C(C)C)nc1C(F)(F)F [Compound E22b, (S)-1-(2-(1-isopropyl-7-(methylsulfonyl)-3,4-dihydropyrazino[1,2-a]indol-2(1H)-yl)-4-(trifluoromethyl)pyrimidin-5-yl)ethanone] | – | > 2500 | 11500
19 | CC(C)[C@H]1c2cc3ccc(S(C)(=O)=O)cc3n2CCN1c1ncc(C(C)(C)O)c(C(F)(F)F)n1 [Compound E23b, (S)-2-(2-(1-isopropyl-7-(methylsulfonyl)-3,4-dihydropyrazino[1,2-a]indol-2(1H)-yl)-4-(trifluoromethyl)pyrimidin-5-yl)propan-2-ol] | – | 2440 | 1340
20 | CC(C)[C@@H]1c2cc3ccc(S(C)(=O)=O)cc3n2CCN1c1ncc(CO)c(C(F)(F)F)n1 [Compound E25a, (R)-(2-(1-isopropyl-7-(methylsulfonyl)-3,4-dihydropyrazino[1,2-a]indol-2(1H)-yl)-4-(trifluoromethyl)pyrimidin-5-yl)methanol] | – | 6 | 83
21 | COC(=O)c1cnc(N2CCn3c(nc4cc(CO)c(S(C)(=O)=O)cc43)[C@H]2C(C)C)nc1C(F)(F)F [Compound E30, (R)-methyl 2-(8-(hydroxymethyl)-1-isopropyl-7-(methylsulfonyl)-3,4-dihydrobenzo[4,5]imidazo[1,2-a]pyrazin-2(1H)-yl)-4-(trifluoromethyl)pyrimidine-5-carboxylate] | 17 | 10 | –

Further lines, with some results ahead:

Row | EC50 (LBD of LXRβ [1]) [nM] | Ki (LXR β LBD protein) [nM] | Compound | EC50 (LBD of LXRβ [2]) [nM]
22 | 350 | 191 | CC(=O)c1cnc(N2CCn3c(nc4ccc(S(C)(=O)=O)cc43)C2C(C)C)nc1C(F)(F)F (racemic) [Compound E1, 1-(2-(1-isopropyl-7-(methylsulfonyl)-3,4-dihydrobenzo[4,5]imidazo[1,2-a]pyrazin-2(1H)-yl)-4-(trifluoromethyl)pyrimidin-5-yl)ethanone] | –
23 | 16 | 7 | CC(=O)c1cnc(N2CCn3c(cc4cc(CO)c(S(C)(=O)=O)cc43)C2C(C)C)nc1C(F)(F)F (racemic) [Compound E26, (±)-1-(2-(8-(hydroxymethyl)-1-isopropyl-7-(methylsulfonyl)-3,4-dihydropyrazino[1,2-a]indol-2(1H)-yl)-4-(trifluoromethyl)pyrimidin-5-yl)ethanone] | –
24 | 68 | 14 | CCCC(O)c1cnc(N2CCn3c(nc4cc(CO)c(S(C)(=O)=O)cc43)[C@H]2C(C)C)nc1C(F)(F)F (single isomer, unassigned) [Compound E11a] | –
25 | > 20000 | 220 | CC(C)[C@@H]1c2nc3cc(CO)c(S(C)(=O)=O)cc3n2CCN1c1ncc(C(=O)N(C)C)c(C(F)(F)F)n1 (single isomer, unassigned) [Compound E17a] | –
26 | 4900 | > 2500 | CC(C)[C@H]1c2nc3cc(CO)c(S(C)(=O)=O)cc3n2CCN1c1ncc(C(=O)N(C)C)c(C(F)(F)F)n1 (single isomer, unassigned) [Compound E17b] | –
27 | > 20000 | 110 | CC(C)[C@@H]1c2nc3cc(CO)c(S(C)(=O)=O)cc3n2CCN1c1ncc(CO)c(C2CC2)n1 (single isomer, unassigned) [Compound E20a] | –
28 | > 20000 | > 2500 | CC(C)[C@H]1c2nc3cc(CO)c(S(C)(=O)=O)cc3n2CCN1c1ncc(CO)c(C2CC2)n1 (single isomer, unassigned) [Compound E20b] | –
29 | 10 | 10 | Cc1cnc(N2CCn3c(nc4cc(CO)c(S(C)(=O)=O)cc43)[C@H]2C(C)C)nc1C(F)(F)F [Compound E21, (R)-(1-isopropyl-2-(5-methyl-4-(trifluoromethyl)pyrimidin-2-yl)-7-(methylsulfonyl)-1,2,3,4-tetrahydrobenzo[4,5]imidazo[1,2-a]pyrazin-8-yl)methanol] | –
30 | – | 21 | CC(C)[C@@H]1c2cc3ccc(S(C)(=O)=O)cc3n2CCN1c1ncc(C(C)(C)O)c(C(F)(F)F)n1 [Compound E23a, (R)-2-(2-(1-isopropyl-7-(methylsulfonyl)-3,4-dihydropyrazino[1,2-a]indol-2(1H)-yl)-4-(trifluoromethyl)pyrimidin-5-yl)propan-2-ol] | 306
